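A five-concentration, 48-hour dose response in 96-well plates underlies each endpoint, interpolated linearly between surrounding concentrations. GI50: concentration for 50% inhibition of growth.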 Activity calls are given as the source filed them. No stated cut-off is given here; in the data, active = GI50 up to about 1.1 µM and inactive = higher.
Assays:
Assay in all cases: NCI-60 cell line screen, 48 h
[1] = system: SW-620
[2] = system: 786-0
[3] = system: MCF7
[4] = system: HOP-92
[5] = system: CAKI-1
[6] = system: U-251
[7] = system: NCI-H226
[8] = system: TK-10
[9] = system: MDA-N
[10] = system: NCI-H522
[11] = system: NCI-H23
[12] = system: UACC-62
[13] = system: RPMI-8226
[14] = system: A498
[15] = system: HCT-116
[16] = system: PC-3
[17] = system: UO-31
[18] = system: Hs-578T
[19] = system: MOLT-4
[20] = system: SR

In the case of Cc1ccc(S(=O)(=O)c2ccsc2NC(=O)C(F)(F)F)cc1, the GI50 [1] is reported as 57.3 µM (inactive), the GI50 [2] is reported as 37.6 µM (inactive) and the GI50 [3] is reported as 44.8 µM (inactive). For the same compound, the GI50 [4] was 30.9 µM (inactive), the GI50 [5] was 34.9 µM (inactive) and the GI50 [6] was 70.8 µM (inactive). For the same compound, the GI50 [7] was 39.7 µM (inactive), the GI50 [8] was 61.1 µM (inactive) and the GI50 [9] was 23.6 µM (inactive). For the same compound, the GI50 [10] was 24.4 µM (inactive), the GI50 [11] was 34.5 µM (inactive) and the GI50 [12] was 35.7 µM (inactive). The GI50 [13] was 8.02 µM (inactive), the GI50 [14] was 53 µM (inactive) and the GI50 [15] was 28.6 µM (inactive). For the same compound, the GI50 [16] was 37.6 µM (inactive), the GI50 [17] was 28.9 µM (inactive) and the GI50 [18] was 32.7 µM (inactive). For the same compound, the GI50 [19] was 18.5 µM (inactive).
With O=C(N/N=C/c1ccc(Cl)cc1)c1ccccc1Nc1ccccc1C(=O)N/N=C/c1ccc(Cl)cc1 the GI50 [1] was > 100 µM (inactive), the GI50 [2] was > 100 µM (inactive) and the GI50 [20] was > 100 µM (inactive). For the same compound, the GI50 [3] was > 100 µM (inactive), the GI50 [4] was > 100 µM (inactive) and the GI50 [5] was > 100 µM (inactive). For the same compound, the GI50 [6] was > 100 µM (inactive), the GI50 [7] was > 100 µM (inactive) and the GI50 [8] was > 100 µM (inactive). The GI50 [9] was > 100 µM (inactive), the GI50 [11] was > 100 µM (inactive) and the GI50 [12] was > 100 µM (inactive). The GI50 [13] was > 100 µM (inactive), the GI50 [14] was > 100 µM (inactive) and the GI50 [15] was > 100 µM (inactive). For the same compound, the GI50 [16] was > 100 µM (inactive), the GI50 [17] was > 100 µM (inactive) and the GI50 [19] was > 100 µM (inactive).
For COc1ccc(CC(N)c2ccc(OC)cc2)cc1 (configuration not stated), the GI50 [1] was > 100 µM (inactive), the GI50 [2] was > 100 µM (inactive) and the GI50 [3] was 44.5 µM (inactive). The GI50 [4] was 29.4 µM (inactive), the GI50 [5] was > 100 µM (inactive) and the GI50 [6] was 95.3 µM (inactive). The GI50 [7] was 76.2 µM (inactive), the GI50 [8] was > 100 µM (inactive) and the GI50 [9] was 36.8 µM (inactive). The GI50 [10] was > 100 µM (inactive), the GI50 [11] was > 100 µM (inactive) and the GI50 [12] was 71.3 µM (inactive). The GI50 [13] was 28.1 µM (inactive), the GI50 [14] was > 100 µM (inactive) and the GI50 [15] was 92.9 µM (inactive). For the same compound, the GI50 [16] was 42.8 µM (inactive), the GI50 [17] was 90.6 µM (inactive) and the GI50 [18] was 43.9 µM (inactive). For the same compound, the GI50 [19] was 57.8 µM (inactive).
With O=C(CCc1ccccc1)ON1C(=S)NC(c2ccccc2)(c2ccccc2)C1=S the GI50 [1] was 42.4 µM (inactive), the GI50 [2] was 19.7 µM (inactive) and the GI50 [3] was 32.9 µM (inactive). For the same compound, the GI50 [4] was 65 µM (inactive), the GI50 [5] was 33.7 µM (inactive) and the GI50 [6] was 39.4 µM (inactive). For the same compound, the GI50 [7] was 22 µM (inactive), the GI50 [8] was 54.5 µM (inactive) and the GI50 [9] was 38.1 µM (inactive). For the same compound, the GI50 [11] was 30.3 µM (inactive), the GI50 [12] was 33.9 µM (inactive) and the GI50 [13] was 29.1 µM (inactive). The GI50 [14] was > 100 µM (inactive), the GI50 [15] was 23.7 µM (inactive) and the GI50 [16] was 23.4 µM (inactive). The GI50 [17] was 43.4 µM (inactive), the GI50 [18] was 31.1 µM (inactive) and the GI50 [19] was 32.3 µM (inactive).
In the case of Cc1ncc(COP(=O)(O)O)c(C)c1O, the GI50 [1] is reported as > 100 µM (inactive), the GI50 [2] is reported as > 100 µM (inactive) and the GI50 [20] is reported as > 100 µM (inactive). The GI50 [4] was > 100 µM (inactive), the GI50 [5] was > 100 µM (inactive) and the GI50 [6] was > 100 µM (inactive). For the same compound, the GI50 [7] was > 100 µM (inactive), the GI50 [8] was > 100 µM (inactive) and the GI50 [9] was > 100 µM (inactive). For the same compound, the GI50 [10] was > 100 µM (inactive), the GI50 [11] was > 100 µM (inactive) and the GI50 [12] was > 100 µM (inactive). For the same compound, the GI50 [14] was > 100 µM (inactive), the GI50 [15] was > 100 µM (inactive) and the GI50 [16] was > 100 µM (inactive). For the same compound, the GI50 [17] was > 100 µM (inactive), the GI50 [18] was > 100 µM (inactive) and the GI50 [19] was > 100 µM (inactive).
For O=C1/C(=C/c2ccc3c(c2)OCO3)Sc2scc(-c3ccc(O)c(O)c3)[n+]21, the GI50 [1] was 1.99 µM (inactive), the GI50 [2] was 1.92 µM (inactive) and the GI50 [3] was 3.22 µM (inactive). The GI50 [4] was 2.65 µM (inactive), the GI50 [5] was 1.53 µM (inactive) and the GI50 [6] was 4.62 µM (inactive). For the same compound, the GI50 [7] was 13.3 µM (inactive), the GI50 [8] was 2.04 µM (inactive) and the GI50 [9] was 3.12 µM (inactive). The GI50 [10] was 1.04 µM (active), the GI50 [11] was 2.69 µM (inactive) and the GI50 [12] was 2.67 µM (inactive). The GI50 [13] was 1.71 µM (inactive), the GI50 [15] was 1.96 µM (inactive) and the GI50 [16] was 4.38 µM (inactive). The GI50 [17] was 2.29 µM (inactive), the GI50 [18] was 7.13 µM (inactive) and the GI50 [19] was 0.927 µM (active).
For COc1ccc2nc3ccc(OC)cc3c(SCc3ccc([N+](=O)[O-])cc3)c2c1, the GI50 [1] was > 100 µM (inactive), the GI50 [2] was 24.7 µM (inactive) and the GI50 [20] was > 100 µM (inactive). For the same compound, the GI50 [4] was > 100 µM (inactive), the GI50 [5] was 44.1 µM (inactive) and the GI50 [6] was > 10 µM (inactive). The GI50 [7] was 42.8 µM (inactive), the GI50 [8] was 34 µM (inactive) and the GI50 [9] was > 100 µM (inactive). The GI50 [10] was 17.3 µM (inactive), the GI50 [11] was 50 µM (inactive) and the GI50 [12] was > 100 µM (inactive). The GI50 [14] was > 100 µM (inactive), the GI50 [15] was 70.3 µM (inactive) and the GI50 [16] was 68.2 µM (inactive). The GI50 [17] was > 100 µM (inactive) and the GI50 [19] was > 100 µM (inactive).
